Experimental data taken from ChEMBL document CHEMBL3627608, “Crystal structures of human RIP2 kinase catalytic domain complexed with ATP-competitive inhibitors: Foundations for understanding inhibitor selectivity” (Bioorg Med Chem, 2015).

Columns and labels:
[1] = target: Vascular endothelial growth factor receptor 1 (Homo sapiens) (UniProt P17948); assay: Inhibition of FLT1 (unknown origin) at 10 uM after 120 mins P33 radiolabeled kinase activity assay
[2] = target: Myosin light chain kinase 2, skeletal/cardiac muscle (Homo sapiens) (UniProt Q9H1R3); assay: Inhibition of MLCK2 (unknown origin) at 10 uM after 120 mins P33 radiolabeled kinase activity assay
Chain of Myosin light chain kinase 2, skeletal/cardiac muscle (Homo sapiens) (Q9H1R3 whole entry): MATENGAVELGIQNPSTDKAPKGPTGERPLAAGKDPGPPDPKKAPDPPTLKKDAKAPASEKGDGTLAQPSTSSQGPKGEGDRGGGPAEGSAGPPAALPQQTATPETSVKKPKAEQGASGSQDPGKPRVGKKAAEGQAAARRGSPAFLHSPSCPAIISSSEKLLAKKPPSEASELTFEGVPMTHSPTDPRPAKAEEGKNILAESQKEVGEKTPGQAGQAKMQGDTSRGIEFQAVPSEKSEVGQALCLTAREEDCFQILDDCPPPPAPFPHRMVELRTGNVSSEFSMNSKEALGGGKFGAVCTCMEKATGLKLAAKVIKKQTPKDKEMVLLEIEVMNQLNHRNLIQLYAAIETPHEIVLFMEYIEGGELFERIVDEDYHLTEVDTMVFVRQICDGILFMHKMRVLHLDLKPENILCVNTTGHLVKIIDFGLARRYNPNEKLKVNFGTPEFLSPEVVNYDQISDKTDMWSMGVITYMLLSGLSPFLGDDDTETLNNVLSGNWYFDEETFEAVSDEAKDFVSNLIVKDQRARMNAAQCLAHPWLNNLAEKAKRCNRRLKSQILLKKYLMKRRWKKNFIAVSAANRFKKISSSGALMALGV

[3] = target: CDK3/Cyclin E (Homo sapiens) (UniProt P24864+Q00526); assay: Inhibition of CDK3/cyclin E (unknown origin) at 10 uM after 120 mins P33 radiolabeled kinase activity assay; type: protein-complex assay
[4] = target: Receptor tyrosine-protein kinase erbB-4 (Homo sapiens) (UniProt Q15303); assay: Inhibition of ERBB4 (unknown origin) at 10 uM after 120 mins P33 radiolabeled kinase activity assay
Chain of Receptor tyrosine-protein kinase erbB-4 (Homo sapiens) (Q15303 whole entry): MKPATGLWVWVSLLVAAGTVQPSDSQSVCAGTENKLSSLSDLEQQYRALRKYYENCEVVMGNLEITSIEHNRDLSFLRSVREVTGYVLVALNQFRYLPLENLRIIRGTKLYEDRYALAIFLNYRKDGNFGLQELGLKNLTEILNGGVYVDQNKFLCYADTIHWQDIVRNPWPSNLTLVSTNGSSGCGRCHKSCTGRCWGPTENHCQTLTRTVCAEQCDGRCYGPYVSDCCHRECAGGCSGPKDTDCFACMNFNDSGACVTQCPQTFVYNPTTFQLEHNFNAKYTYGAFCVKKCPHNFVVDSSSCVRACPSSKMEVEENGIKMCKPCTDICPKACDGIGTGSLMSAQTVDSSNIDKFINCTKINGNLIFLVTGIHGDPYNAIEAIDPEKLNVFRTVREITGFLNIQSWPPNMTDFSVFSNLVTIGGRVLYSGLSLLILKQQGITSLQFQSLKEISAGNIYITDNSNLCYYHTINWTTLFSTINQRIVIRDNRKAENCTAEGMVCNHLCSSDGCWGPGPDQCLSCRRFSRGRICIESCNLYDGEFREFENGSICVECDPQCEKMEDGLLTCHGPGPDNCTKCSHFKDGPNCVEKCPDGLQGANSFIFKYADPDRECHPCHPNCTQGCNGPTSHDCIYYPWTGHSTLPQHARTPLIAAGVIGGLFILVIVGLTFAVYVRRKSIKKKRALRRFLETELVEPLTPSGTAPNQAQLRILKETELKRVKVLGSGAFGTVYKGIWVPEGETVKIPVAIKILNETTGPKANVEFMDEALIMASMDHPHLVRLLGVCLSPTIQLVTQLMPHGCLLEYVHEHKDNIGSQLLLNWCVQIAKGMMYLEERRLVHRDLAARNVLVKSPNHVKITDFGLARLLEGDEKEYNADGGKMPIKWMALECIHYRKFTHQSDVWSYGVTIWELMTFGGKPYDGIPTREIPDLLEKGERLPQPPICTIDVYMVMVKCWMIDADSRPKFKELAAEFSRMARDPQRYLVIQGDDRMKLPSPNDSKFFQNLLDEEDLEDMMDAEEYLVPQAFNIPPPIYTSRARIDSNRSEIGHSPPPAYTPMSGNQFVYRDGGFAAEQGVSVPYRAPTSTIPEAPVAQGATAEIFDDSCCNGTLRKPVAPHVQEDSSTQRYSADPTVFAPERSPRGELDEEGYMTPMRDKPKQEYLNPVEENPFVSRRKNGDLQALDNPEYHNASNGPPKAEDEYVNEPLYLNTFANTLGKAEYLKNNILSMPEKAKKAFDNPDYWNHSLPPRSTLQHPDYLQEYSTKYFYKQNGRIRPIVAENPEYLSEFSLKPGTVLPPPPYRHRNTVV

[5] = target: Serine/threonine-protein kinase PAK 5 (Homo sapiens) (UniProt Q9P286); assay: Inhibition of PAK5 (unknown origin) at 10 uM after 120 mins P33 radiolabeled kinase activity assay
Chain of Serine/threonine-protein kinase PAK 5 (Homo sapiens) (Q9P286 whole entry, looked up): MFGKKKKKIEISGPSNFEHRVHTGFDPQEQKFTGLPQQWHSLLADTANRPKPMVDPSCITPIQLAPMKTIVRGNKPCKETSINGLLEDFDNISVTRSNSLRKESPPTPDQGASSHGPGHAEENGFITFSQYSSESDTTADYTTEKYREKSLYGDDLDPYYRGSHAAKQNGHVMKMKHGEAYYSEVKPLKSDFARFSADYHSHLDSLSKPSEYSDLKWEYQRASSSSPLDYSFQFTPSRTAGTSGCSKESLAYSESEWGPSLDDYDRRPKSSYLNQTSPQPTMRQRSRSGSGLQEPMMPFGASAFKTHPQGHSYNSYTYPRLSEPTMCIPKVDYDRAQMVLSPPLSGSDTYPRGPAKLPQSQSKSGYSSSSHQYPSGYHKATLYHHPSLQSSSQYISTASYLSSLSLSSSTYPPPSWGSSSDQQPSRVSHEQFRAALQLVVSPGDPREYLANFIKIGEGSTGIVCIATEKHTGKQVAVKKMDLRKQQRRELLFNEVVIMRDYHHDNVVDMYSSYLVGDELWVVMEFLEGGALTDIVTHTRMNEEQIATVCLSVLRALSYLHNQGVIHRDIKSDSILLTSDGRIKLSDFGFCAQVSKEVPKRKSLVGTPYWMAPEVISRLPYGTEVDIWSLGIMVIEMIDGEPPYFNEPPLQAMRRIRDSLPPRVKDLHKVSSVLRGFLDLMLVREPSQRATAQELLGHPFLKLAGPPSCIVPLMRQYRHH

[6] = target: T1, Serine/threonine-protein kinase TAO2 (Homo sapiens) (UniProt Q9UL54); assay: Inhibition of TAOK2 (unknown origin) at 10 uM after 120 mins P33 radiolabeled kinase activity assay
T1 sequence (whole entry): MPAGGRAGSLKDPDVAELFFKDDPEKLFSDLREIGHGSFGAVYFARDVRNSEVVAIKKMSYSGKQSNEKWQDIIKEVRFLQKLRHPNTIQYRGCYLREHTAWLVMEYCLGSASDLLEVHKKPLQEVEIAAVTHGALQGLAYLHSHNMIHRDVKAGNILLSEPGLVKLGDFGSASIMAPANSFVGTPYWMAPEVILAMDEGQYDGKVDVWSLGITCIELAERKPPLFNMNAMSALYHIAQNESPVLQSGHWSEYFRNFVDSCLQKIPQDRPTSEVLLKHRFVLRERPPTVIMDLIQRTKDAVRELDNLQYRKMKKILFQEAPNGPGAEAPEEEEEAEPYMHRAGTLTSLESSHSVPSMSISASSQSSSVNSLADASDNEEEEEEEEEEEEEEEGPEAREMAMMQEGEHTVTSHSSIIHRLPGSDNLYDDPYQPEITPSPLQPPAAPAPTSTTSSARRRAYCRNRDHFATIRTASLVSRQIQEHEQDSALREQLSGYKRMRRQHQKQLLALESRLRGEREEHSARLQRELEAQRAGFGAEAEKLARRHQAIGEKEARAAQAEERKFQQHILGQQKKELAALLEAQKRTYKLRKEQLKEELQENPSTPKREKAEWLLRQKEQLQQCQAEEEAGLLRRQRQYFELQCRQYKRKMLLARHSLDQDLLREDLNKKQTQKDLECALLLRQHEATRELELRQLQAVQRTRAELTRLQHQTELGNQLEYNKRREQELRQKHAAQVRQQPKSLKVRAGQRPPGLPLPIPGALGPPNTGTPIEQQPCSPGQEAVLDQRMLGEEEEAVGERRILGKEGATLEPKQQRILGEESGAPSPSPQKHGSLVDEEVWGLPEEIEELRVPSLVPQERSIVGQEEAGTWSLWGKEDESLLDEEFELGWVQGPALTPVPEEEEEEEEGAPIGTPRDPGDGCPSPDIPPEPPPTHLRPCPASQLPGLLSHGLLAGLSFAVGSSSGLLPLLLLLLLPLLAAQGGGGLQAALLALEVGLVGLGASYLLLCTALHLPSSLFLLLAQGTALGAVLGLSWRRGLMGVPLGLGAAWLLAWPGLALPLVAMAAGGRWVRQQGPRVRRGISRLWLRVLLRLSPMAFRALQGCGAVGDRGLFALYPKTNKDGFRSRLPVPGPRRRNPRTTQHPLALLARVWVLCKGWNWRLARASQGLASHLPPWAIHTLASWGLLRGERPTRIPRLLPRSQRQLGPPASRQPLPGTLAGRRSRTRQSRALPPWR

[7] = target: Receptor-interacting serine/threonine-protein kinase 3 (Homo sapiens) (UniProt Q9Y572); assay: Inhibition of RIPK3 (unknown origin) at 10 uM after 120 mins P33 radiolabeled kinase activity assay
Chain of Receptor-interacting serine/threonine-protein kinase 3 (Homo sapiens) (Q9Y572 whole entry, looked up): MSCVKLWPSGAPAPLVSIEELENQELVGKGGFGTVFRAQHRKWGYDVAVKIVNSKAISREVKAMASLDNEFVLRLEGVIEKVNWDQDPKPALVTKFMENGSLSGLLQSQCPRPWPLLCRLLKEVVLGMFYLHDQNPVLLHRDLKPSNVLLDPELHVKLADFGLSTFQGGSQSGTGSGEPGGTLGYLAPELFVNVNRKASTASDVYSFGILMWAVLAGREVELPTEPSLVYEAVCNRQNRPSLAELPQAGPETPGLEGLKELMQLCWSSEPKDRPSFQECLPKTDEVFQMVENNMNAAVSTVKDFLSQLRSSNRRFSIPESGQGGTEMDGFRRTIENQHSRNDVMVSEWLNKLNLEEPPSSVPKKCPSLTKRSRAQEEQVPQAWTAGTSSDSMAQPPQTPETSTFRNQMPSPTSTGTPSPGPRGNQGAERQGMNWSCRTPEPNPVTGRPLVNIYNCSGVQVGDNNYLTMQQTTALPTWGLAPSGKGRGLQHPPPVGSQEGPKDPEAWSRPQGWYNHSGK

[8] = target: T2, Mitogen-activated protein kinase 12 (Homo sapiens) (UniProt P53778); assay: Inhibition of P38gamma (unknown origin) at 10 uM after 120 mins P33 radiolabeled kinase activity assay
T2 sequence (whole entry): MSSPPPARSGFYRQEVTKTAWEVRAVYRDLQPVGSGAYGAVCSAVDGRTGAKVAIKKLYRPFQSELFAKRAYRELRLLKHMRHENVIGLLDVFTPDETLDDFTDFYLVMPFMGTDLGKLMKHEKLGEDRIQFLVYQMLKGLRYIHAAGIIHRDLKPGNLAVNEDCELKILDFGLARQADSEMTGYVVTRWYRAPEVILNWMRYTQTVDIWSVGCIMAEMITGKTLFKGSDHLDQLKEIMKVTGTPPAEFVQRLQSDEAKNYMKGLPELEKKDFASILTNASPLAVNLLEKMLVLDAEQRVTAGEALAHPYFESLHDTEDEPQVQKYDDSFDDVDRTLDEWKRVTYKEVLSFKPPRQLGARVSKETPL

[9] = target: T3, Tyrosine-protein kinase ZAP-70 (Homo sapiens) (UniProt P43403); assay: Inhibition of ZAP70 (unknown origin) at 10 uM after 120 mins P33 radiolabeled kinase activity assay
T3 sequence (whole entry): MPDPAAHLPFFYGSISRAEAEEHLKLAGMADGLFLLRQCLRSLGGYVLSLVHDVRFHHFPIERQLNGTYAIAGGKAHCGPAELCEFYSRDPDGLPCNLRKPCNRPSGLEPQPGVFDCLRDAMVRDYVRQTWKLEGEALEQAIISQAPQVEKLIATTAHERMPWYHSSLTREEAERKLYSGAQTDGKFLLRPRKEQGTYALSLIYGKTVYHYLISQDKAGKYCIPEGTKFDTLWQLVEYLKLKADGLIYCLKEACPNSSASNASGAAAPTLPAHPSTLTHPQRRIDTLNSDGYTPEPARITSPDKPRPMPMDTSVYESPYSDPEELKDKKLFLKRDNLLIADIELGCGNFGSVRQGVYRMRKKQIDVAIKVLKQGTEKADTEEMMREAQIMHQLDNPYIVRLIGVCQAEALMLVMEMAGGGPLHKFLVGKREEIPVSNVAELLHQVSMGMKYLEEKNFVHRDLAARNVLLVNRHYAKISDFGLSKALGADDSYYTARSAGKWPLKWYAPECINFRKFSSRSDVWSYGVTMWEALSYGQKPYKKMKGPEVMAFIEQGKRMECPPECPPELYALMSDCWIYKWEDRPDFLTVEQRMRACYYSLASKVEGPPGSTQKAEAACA

[10] = target: Insulin-like growth factor 1 receptor (Homo sapiens) (UniProt P08069); assay: Inhibition of IGF1R (unknown origin) at 10 uM after 120 mins P33 radiolabeled kinase activity assay

Chain of Vascular endothelial growth factor receptor 1 (Homo sapiens) (P17948 whole entry): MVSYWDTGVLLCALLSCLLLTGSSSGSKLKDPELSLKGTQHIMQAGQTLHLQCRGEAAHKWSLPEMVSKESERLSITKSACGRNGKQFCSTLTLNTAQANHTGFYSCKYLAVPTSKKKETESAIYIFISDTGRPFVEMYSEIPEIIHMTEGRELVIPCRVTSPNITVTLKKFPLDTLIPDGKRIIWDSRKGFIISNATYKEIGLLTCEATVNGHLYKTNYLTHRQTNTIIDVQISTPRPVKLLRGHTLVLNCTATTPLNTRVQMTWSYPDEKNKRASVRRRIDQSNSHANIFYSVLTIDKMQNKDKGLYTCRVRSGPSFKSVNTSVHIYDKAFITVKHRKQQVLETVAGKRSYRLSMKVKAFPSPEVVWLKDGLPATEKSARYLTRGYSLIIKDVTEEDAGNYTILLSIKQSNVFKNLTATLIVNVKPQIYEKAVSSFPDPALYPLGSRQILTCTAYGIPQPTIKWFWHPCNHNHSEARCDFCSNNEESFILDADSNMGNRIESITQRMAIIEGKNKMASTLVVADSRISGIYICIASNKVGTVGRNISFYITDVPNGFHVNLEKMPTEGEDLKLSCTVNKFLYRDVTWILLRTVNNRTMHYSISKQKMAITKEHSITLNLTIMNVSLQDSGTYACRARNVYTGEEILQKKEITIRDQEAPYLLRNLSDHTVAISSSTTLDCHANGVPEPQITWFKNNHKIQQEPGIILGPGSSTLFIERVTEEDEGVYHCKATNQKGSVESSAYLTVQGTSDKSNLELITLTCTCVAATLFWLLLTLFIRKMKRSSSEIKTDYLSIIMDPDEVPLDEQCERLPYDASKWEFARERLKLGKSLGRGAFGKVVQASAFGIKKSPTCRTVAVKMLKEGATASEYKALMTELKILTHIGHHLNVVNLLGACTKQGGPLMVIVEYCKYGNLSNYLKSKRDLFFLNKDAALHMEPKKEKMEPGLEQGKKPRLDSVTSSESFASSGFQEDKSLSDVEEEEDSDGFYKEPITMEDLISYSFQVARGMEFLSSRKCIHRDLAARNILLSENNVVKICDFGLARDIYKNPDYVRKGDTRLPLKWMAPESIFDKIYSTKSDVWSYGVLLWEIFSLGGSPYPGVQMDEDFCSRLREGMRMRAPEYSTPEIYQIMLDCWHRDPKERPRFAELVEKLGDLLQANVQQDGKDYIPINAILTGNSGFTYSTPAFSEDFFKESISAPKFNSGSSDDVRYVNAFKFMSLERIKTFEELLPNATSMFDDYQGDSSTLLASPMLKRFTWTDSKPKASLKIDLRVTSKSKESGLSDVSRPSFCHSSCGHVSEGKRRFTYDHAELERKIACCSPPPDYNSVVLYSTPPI

Compound: COCCNC(=O)c1ccc2c(c1)nc(-c1cnc(-c3ccc(Cl)cc3)[nH]1)n2CCOC
- inhibition [1]: 0.33%
- inhibition [2]: 12.1%
- inhibition [3]: 0.29%
- inhibition [4]: 1.69%
- inhibition [5]: 14.8%
- inhibition [6]: 1.71%
- inhibition [7]: 27.6%
- inhibition [8]: -3.25%
- inhibition [9]: 0.28%
- inhibition [10]: 2.21%

Compound: CS(=O)(=O)c1cccc(Nc2nccc(-c3sc(N4CCOCC4)nc3-c3cccc(NS(=O)(=O)c4c(F)cccc4F)c3)n2)c1
- inhibition [1]: 98%
- inhibition [2]: 30.2%
- inhibition [3]: 60%
- inhibition [4]: 98.5%
- inhibition [5]: 17.8%
- inhibition [6]: 77.8%
- inhibition [7]: 83.1%
- inhibition [8]: 7.45%
- inhibition [9]: -0.68%
- inhibition [10]: 9.14%

Compound: CC(C)(C)c1cc(NC(=O)Nc2ccc(Oc3ccncc3)cc2)no1
- inhibition [1]: 97.5%
- inhibition [2]: 53.2%
- inhibition [3]: 49.5%
- inhibition [4]: -3.92%
- inhibition [5]: 14.3%
- inhibition [6]: 96.7%
- inhibition [7]: 81.4%
- inhibition [8]: 97.4%
- inhibition [9]: -5.86%
- inhibition [10]: 2.82%
